Data reported in patent US20260240154A1, “GLOBODERA PALLIDA CONTROL AGENT” (National Agriculture and Food Research Organization, priority 2021, published 2026).

System: Globodera pallida eggs
Assay: Hatching accelerating effect evaluation test for Globodera pallida (liquid immersion test)
Type: in vivo
Conditions: for Average hatching rate at 1 ppm (%): optically active compounds; for Average hatching rate (%): 1 mL of 2 ppm test reagent solution added to 1 mL egg suspension, 16° C., about 2 weeks, two replicates
Protocol: A predetermined amount of compound (I) was dissolved in an aqueous solution containing 0.05% (v/v) of polyoxyethylene sorbitan monolaurate (Tween20) to prepare a 100 ppm solution of compound (I).
The 100 ppm solution of compound (I) was further diluted with a 0.05% (v/v) Tween20 aqueous solution to prepare a test reagent solution with a concentration of compound (I) of 2 ppm.
The cysts of Globodera pallida increased in a greenhouse before the previous year were isolated from the soil, immersed in distilled water and kept at 16° C. for about 2 weeks were crushed with a scalpel and the eggs were taken out to obtain an egg suspension. After preparing a density of approximately 600 eggs per mL, Tween 20 was added to a concentration of 0.05% (v/v). 1 mL of this egg suspension was put into a 13.5 mL screw cap glass vial (inner diameter: 2.1 cm, height: 4.8 cm), and 1 mL each of a test reagent solution with a concentration of compound (I) of 2 ppm was added. It was covered and kept at 16° C.
About 2 weeks later, 1 mL was taken out, and the number of hatching larvae and the number of eggs were counted under a stereomicroscope. Two replicates were installed for each compound, and the average hatching rate was calculated.

Compound: CC1(C)NC(=O)CC1c1ccccc1 (single isomer, unassigned) [1 (−), 5,5-dimethyl-4-phenyl-2-pyrrolidinone]
- Average hatching rate at 1 ppm (%): 87.7%

Compound: CC1(C)NC(=O)CC1c1ccc(Cl)cc1 (single isomer, unassigned) [3 (−), 5,5-dimethyl-4-(4-chlorophenyl)-2-pyrrolidinone]
- Average hatching rate at 1 ppm (%): 92.0%

Compound: CC1(C)NS(=O)(=O)CC1c1ccc(Cl)cc1 (single isomer, unassigned) [B-12 (−), 4-(4-chlorophenyl)-3,3-dimethylisothiazolidine-1,1-dioxide]
- Average hatching rate at 1 ppm (%): 94.6%

Compound: CC1(C)NC(=O)CC1c1ccccc1 (single isomer, unassigned; (+)) [1 (+), (+)-5,5-dimethyl-4-phenyl-2-pyrrolidinone]
- Average hatching rate at 1 ppm (%): 37.8%

Compound: Cc1ccc(C2CC(=O)NC2(C)C)cc1 (single isomer, unassigned; (+)) [2 (+), (+)-5,5-dimethyl-4-(4-methylphenyl)-2-pyrrolidinone]
- Average hatching rate at 1 ppm (%): 63.6%

Compound: CC1(C)NC(=O)CC1c1ccc(Cl)cc1 (single isomer, unassigned; (+)) [3 (+), (+)-5,5-dimethyl-4-(4-chlorophenyl)-2-pyrrolidinone]
- Average hatching rate at 1 ppm (%): 93.2%

Compound: CC1(C)NS(=O)(=O)CC1c1ccc(Cl)cc1 (single isomer, unassigned; (+)) [B-12 (+), (+)-4-(4-chlorophenyl)-3,3-dimethylisothiazolidine-1,1-dioxide]
- Average hatching rate at 1 ppm (%): 95.2%

Compound: Cc1ccc(C2CC(=O)NC2(C)C)cc1 (single isomer, unassigned; (-)) [Compound 2 (−), (−)-5,5-dimethyl-4-(4-methylphenyl)-2-pyrrolidinone]
- Average hatching rate at 1 ppm (%): 91.8%

Compound: CC1(C)NC(=O)[C@H]2C[C@]21c1ccccc1 (stereo in doubt) [Compound C-1, 4,4-dimethyl-5-phenyl-3-azabicyclo[3.1.0]hexan-2-one]
- Average hatching rate (%): 94.0%

Compound: CC1(C)NC(=O)CC1c1ccccc1 (stereo not drawn) [Compound 1, 5,5-dimethyl-4-phenyl-2-pyrrolidinone]
- Average hatching rate (%): 83.0%

Compound: COc1ccc(C2CC(=O)NC2(C)C)cc1 (stereo not drawn) [Compound 6, 5,5-dimethyl-4-(4-methoxyphenyl)-2-pyrrolidinone]
- Average hatching rate (%): 38.0%

Compound: CC1(C)NC(=O)CC1c1ccc(C(F)(F)F)cc1 (stereo not drawn) [Compound 7, 5,5-dimethyl-4-(4-trifluoromethylphenyl)-2-pyrrolidinone]
- Average hatching rate (%): 86.6%

Compound: CC1(C)NC(=O)CC1c1ccc(F)cc1 (stereo not drawn) [Compound 8, 5,5-dimethyl-4-(4-fluorophenyl)-2-pyrrolidinone]
- Average hatching rate (%): 94.1%

Compound: Cc1cccc(C2CC(=O)NC2(C)C)c1 (stereo not drawn) [Compound 9, 5,5-dimethyl-4-(3-methylphenyl)-2-pyrrolidinone]
- Average hatching rate (%): 72.3%

Compound: Cc1ccccc1C1CC(=O)NC1(C)C (stereo not drawn) [Compound 10, 5,5-dimethyl-4-(2-methylphenyl)-2-pyrrolidinone]
- Average hatching rate (%): 69.2%

Compound: Cc1ccc(C)c(C2CC(=O)NC2(C)C)c1 (stereo not drawn) [Compound 11, 5,5-dimethyl-4-(2,5-dimethyl-phenyl)-2-pyrrolidinone]
- Average hatching rate (%): 72.9%

Compound: CC1(C)NC(=O)CC1c1cc(F)c(F)c(F)c1 (stereo not drawn) [Compound 13, 5,5-dimethyl-4-(3,4,5-trifluoro-phenyl)-2-pyrrolidinone]
- Average hatching rate (%): 62.6%

Compound: Cc1ccc(C2CC(=O)NC2(C)C)c(C)c1 (stereo not drawn) [Compound 14, 5,5-dimethyl-4-(2,4-dimethyl-phenyl)-2-pyrrolidinone]
- Average hatching rate (%): 37.6%

Compound: CC1C(=O)NC(C)(C)C1c1ccccc1 (stereo not drawn) [Compound 15, 3,5,5-trimethyl-4-phenyl-2-pyrrolidinone]
- Average hatching rate (%): 77.3%

Compound: CC1(C)NC(=S)CC1c1ccccc1 (stereo not drawn) [Compound 16, 5,5-dimethyl-4-phenyl pyrrolidine-2-thione]
- Average hatching rate (%): 69.2%

Compound: CC1(C)OC(=O)CC1c1ccccc1 (stereo not drawn) [Compound 17, 5,5-dimethyl-4-phenyldihydrofuran-2(3H)-one]
- Average hatching rate (%): 58.6%
